Reference: patent US20090105283A1, “3-HYDROQUINAZOLIN-4-ONE DERIVATIVES FOR USE AS STEAROYL CoA DESATURASE INHIBITORS” (priority 2007, published 2009)

Target: T1, stearoyl-CoA desaturase (SCD) (Rattus norvegicus, UniProt P07308)
T1 construct: The microsomes were quickly thawed and added to assay buffer so that a concentration of 0.4 mg/ml was achieved; from tissue
T1 sequence (P07308 1-358): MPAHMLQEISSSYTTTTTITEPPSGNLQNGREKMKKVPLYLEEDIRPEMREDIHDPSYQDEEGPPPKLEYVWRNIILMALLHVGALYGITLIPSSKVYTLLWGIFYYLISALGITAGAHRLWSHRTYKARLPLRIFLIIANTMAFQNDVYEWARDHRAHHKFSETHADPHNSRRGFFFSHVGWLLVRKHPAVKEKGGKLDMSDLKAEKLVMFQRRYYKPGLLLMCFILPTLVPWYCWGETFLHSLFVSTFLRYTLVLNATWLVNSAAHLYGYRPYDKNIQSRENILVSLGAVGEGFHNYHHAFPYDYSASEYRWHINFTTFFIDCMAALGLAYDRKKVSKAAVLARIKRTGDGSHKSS
Assay: SCD assay with rat liver microsomes ([3H]stearoyl CoA, adapted from Talamo and Bloch)
Assay type: biochemical
Settings: [3H]stearoyl CoA substrate
How it was run: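 Liver microsomes came from diet-induced male Sprague Dawley rats and were used at 0.2 mg/ml final. Assay buffer was Tris pH 7.2 with NADH, ATP, CoA, MgCl2 and 0.1% BSA. Compounds were preincubated 30 min, then reacted 45 min at room temperature with [3H]stearoyl-CoA; after TCA stop and Bio-Bead cleanup, supernatant radioactivity was counted by scintillation.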

[1] = Table 2 (Example 21, procedures of Example 20), rat liver microsomes
[2] = Table 1, rat liver microsomes 0.2 mg/ml assay final, 30 min preincubation, 45 min reaction, room temperature

IC50 [1]	IC50 [2]	SMILES
3900 nM		O=C(CO)Nc1ccc2ncn(Cc3cccc(-c4ccccc4)c3)c(=O)c2c1 [compound 29, N-(3-(biphenyl-3-ylmethyl)-4-oxo-3,4-dihydroquinazolin-6-yl)-2-hydroxyacetamide]
920 nM		O=C(CO)Nc1ccc2ncn(Cc3ccc(F)c(C(F)(F)F)c3)c(=O)c2c1 [compound 16, N-(3-(4-fluoro-3-(trifluoromethyl)benzyl)-4-oxo-3,4-dihydroquinazolin-6-yl)-2-hydroxyacetamide]
	5420 nM	O=C(CSc1ncccn1)Nc1ccc2ncn(Cc3ccc(Cl)c(Cl)c3)c(=O)c2c1 [LV, N-{3-[(3,4-dichlorophenyl)methyl]-4-oxo(3-hydroquinazolin-6-yl)}-2-pyrimidin-2-ylthioacetamide]
	7640 nM	CC(=O)OCC(=O)Nc1ccc2c(=O)n(Cc3ccc(F)c(F)c3)cnc2c1 [CII, (N-{3-[(3,4-difluorophenyl)methyl]-4-oxo-3-hydroquinazolin-7-yl}carbamoyl)methyl acetate]
490 nM		O=C(CO)Nc1ccc2ncn(Cc3cccc(COc4cc(Cl)ccc4Cl)c3)c(=O)c2c1 [compound 61, N-(3-(3-((2,5-dichlorophenoxy)methyl)benzyl)-4-oxo-3,4-dihydroquinazolin-6-yl)-2-hydroxyacetamide]
	840 nM	O=C(Nc1ccc2c(=O)n(Cc3cccc(F)c3)cnc2c1)OCc1ccccc1 [LXIX, N-{3-[(3-fluorophenyl)methyl]-4-oxo(3-hydroquinazolin-7-yl)}(phenylmethoxy)carboxamide]
	11000 nM	CN(CCOC(=O)Nc1ccc2ncn(Cc3ccc(Cl)c(Cl)c3)c(=O)c2c1)Cc1ccccc1 [LXXXIV, N-{3-[(3,4-dichlorophenyl)methyl]-4-oxo(3-hydroquinazolin-6-yl)}{2-[methylbenzylamino]ethoxy}carboxamide]
2300 nM		O=C(Nc1ccc2ncn(Cc3ccc(Cl)c(Cl)c3)c(=O)c2c1)[C@@H](O)c1ccccc1 [compound 100, (S)—N-(3-(3,4-dichlorobenzyl)-4-oxo-3,4-dihydroquinazolin-6-yl)-2-hydroxy-2-phenylacetamide]
450 nM		O=C(Nc1ccc2c(=O)n(CCCOc3cc(Cl)ccc3Cl)cnc2c1)OCc1ccccc1 [compound 50, benzyl 3-(3-(2,5-dichlorophenoxy)propyl)-4-oxo-3,4-dihydroquinazolin-7-ylcarbamate]
620 nM		O=C(Nc1ccc2ncn(Cc3cccc(COc4cc(Cl)ccc4Cl)c3)c(=O)c2c1)OCc1ccccc1 [compound 62, benzyl 3-(3-((2,5-dichlorophenoxy)methyl)benzyl)-4-oxo-3,4-dihydroquinazolin-6-ylcarbamate]
	2980 nM	COc1ccc(OCC(=O)Nc2ccc3ncn(Cc4ccc(Cl)c(Cl)c4)c(=O)c3c2)cc1 [XVII, N-{3-[(3,4-dichlorophenyl)methyl]-4-oxo(3-hydroquinazolin-6-yl)}-2-(4-methoxyphenoxy)acetamide]
86 nM		O=C(CO)Nc1ccc2c(=O)n(CCCOc3cc(Cl)ccc3Cl)cnc2c1 [compound 51, N-(3-(3-(2,5-dichlorophenoxy)propyl)-4-oxo-3,4-dihydroquinazolin-7-yl)-2-hydroxyacetamide]
	6880 nM	O=C(CCOc1ccccc1)Nc1ccc2ncn(Cc3ccc(Cl)c(Cl)c3)c(=O)c2c1 [XXXIII, N-{3-[(3,4-dichlorophenyl)methyl]-4-oxo(3-hydroquinazolin-6-yl)}-3-phenoxypropanamide]
	160 nM	O=C(Nc1ccc2ncn(Cc3ccc(Cl)c(Cl)c3)c(=O)c2c1)OCc1ccccc1 [I, N-{3-[(3,4-dichlorophenyl)methyl]-4-oxo(3-hydroquinazolin-6-yl)}(phenylmethoxy)carboxamide]
	1320 nM	CC(=O)OCC(=O)Nc1ccc2ncn(Cc3ccc(Cl)c(F)c3)c(=O)c2c1 [XCVIII, (N-{3-[(4-chloro-3-fluorophenyl)methyl]-4-oxo-3-hydroquinazolin-6-yl}carbamoyl)methyl acetate]
	250 nM	O=C(Nc1ccc2c(=O)n(Cc3cccc(Cl)c3)cnc2c1)OCc1ccccc1 [LVIII, N-{3-[(3-chlorophenyl)methyl]-4-oxo(3-hydroquinazolin-7-yl)}(phenylmethoxy)carboxamide]
4900 nM		O=C(CO)Nc1ccc2c(=O)n(CCOc3ccccc3Cl)cnc2c1 [compound 63, N-(3-(2-(2-chlorophenoxy)ethyl)-4-oxo-3,4-dihydroquinazolin-7-yl)-2-hydroxyacetamide]
1400 nM		CCC(c1ccc(Cl)c(Cl)c1)n1cnc2ccc(NC(=O)OCc3ccccc3)cc2c1=O (stereo not drawn) [compound 30, benzyl 3-(1-(3,4-dichlorophenyl)propyl)-4-oxo-3,4-dihydroquinazolin-6-ylcarbamate]

IC50 [1]	IC50 [2]	SMILES
890 nM		O=C(NCc1ccc(F)cc1)c1ccc2c(=O)n(Cc3ccc(Cl)cc3)cnc2c1 [compound 90, 3-(4-chlorobenzyl)-N-(4-fluorobenzyl)-4-oxo-3,4-dihydroquinazoline-7-carboxamide]
	20000 nM	Cc1nc2ccc(NC(=O)OCc3ccccc3)cc2c(=O)n1Cc1ccc(Cl)c(Cl)c1 [VI, N-{3-[(3,4-dichlorophenyl)methyl]-2-methyl-4-oxo(3-hydroquinazolin-6-yl)}(phenylmethoxy)carboxamide]
	780 nM	O=C(Nc1ccc2ncn(Cc3ccc(Cl)c(Cl)c3)c(=O)c2c1)OCc1ccccn1 [LXXXIX, N-{3-[(3,4-dichlorophenyl)methyl]-4-oxo(3-hydroquinazolin-6-yl)}(2-pyridylmethoxy)carboxamide]
1700 nM		O=C(CO)Nc1cnc2ncn(Cc3ccc(Cl)cc3)c(=O)c2c1 [compound 79, N-(3-(4-chlorobenzyl)-4-oxo-3,4-dihydropyrido[2,3-d]pyrimidin-6-yl)-2-hydroxyacetamide]
1800 nM		C[C@@H](c1ccc(Cl)c(Cl)c1)n1cnc2cc(NC(=O)CO)ccc2c1=O [compound 35, (S)—N-(3-(1-(3,4-dichlorophenyl)ethyl)-4-oxo-3,4-dihydroquinazolin-7-yl)-2-hydroxyacetamide]
1200 nM		Cc1nc2cc(NC(=O)OCc3ccccc3)ccc2c(=O)n1Cc1ccc(Cl)c(Cl)c1 [compound 8, benzyl 3-(3,4-dichlorobenzyl)-2-methyl-4-oxo-3,4-dihydroquinazolin-7-ylcarbamate]
4000 nM		Cc1ccccc1OCC(O)Cn1cnc2ccc(NC(=O)CO)cc2c1=O (stereo not drawn) [compound 76, 2-hydroxy-N-(3-(2-hydroxy-3-(o-tolyloxy)propyl)-4-oxo-3,4-dihydroquinazolin-6-yl)acetamide]
	1090 nM	CC(=O)OCC(=O)Nc1ccc2c(=O)n(Cc3ccc(F)c(Cl)c3)cnc2c1 [LXXV, (N-{3-[(3-chloro-4-fluorophenyl)methyl]-4-oxo-3-hydroquinazolin-7-yl}carbamoyl)methyl acetate]
	4700 nM	COC(=O)Nc1ccc2ncn(Cc3ccc(Cl)c(Cl)c3)c(=O)c2c1 [XIII, N-{3-[(3,4-dichlorophenyl)methyl]-4-oxo(3-hydroquinazolin-6-yl)}methoxycarboxamide]
	1980 nM	O=C(COc1ccccc1Cl)Nc1ccc2ncn(Cc3ccc(Cl)c(Cl)c3)c(=O)c2c1 [XXIX, N-{3-[(3,4-dichlorophenyl)methyl]-4-oxo(3-hydroquinazolin-6-yl)}-2-(2-chlorophenoxy)acetamide]
280 nM		Cc1ccc(Cn2cnc3ccc(NC(=O)CO)cc3c2=O)cc1C [compound 22, N-(3-(3,4-dimethylbenzyl)-4-oxo-3,4-dihydroquinazolin-6-yl)-2-hydroxyacetamide]
	2970 nM	O=C(Nc1ccc2ncn(Cc3ccc(Cl)c(Cl)c3)c(=O)c2c1)OCC1CC1 [LXXXV, N-{3-[(3,4-dichlorophenyl)methyl]-4-oxo(3-hydroquinazolin-6-yl)}(cyclopropylmethoxy)carboxamide]
180 nM		O=C(CO)Nc1cnc2ncn(Cc3ccc(Cl)c(Cl)c3)c(=O)c2c1 [compound 78, N-(3-(3,4-dichlorobenzyl)-4-oxo-3,4-dihydropyrido[2,3-d]pyrimidin-6-yl)-2-hydroxyacetamide]
3900 nM		O=C(Nc1ccc2ncn(Cc3ccc(Cl)c(Cl)c3)c(=O)c2c1)[C@H](O)Cc1ccccc1 [compound 96, (R)—N-(3-(3,4-dichlorobenzyl)-4-oxo-3,4-dihydroquinazolin-6-yl)-2-hydroxy-3-phenylpropanamide]
	3770 nM	CCOC(=O)COC(=O)Nc1ccc2c(=O)n(Cc3ccc(Cl)c(Cl)c3)cnc2c1 [XCI, ethyl 2-(N-{3-[(3,4-dichlorophenyl)methyl]-4-oxo-3-hydroquinazolin-7-yl}carbamoyloxy)acetate]
	5310 nM	CCCCCC(=O)Nc1ccc2ncn(Cc3ccc(Cl)c(Cl)c3)c(=O)c2c1 [III, N-{3-[(3,4-dichlorophenyl)methyl]-4-oxo-3-hydroquinazolin-6-yl}hexanamide]
210 nM		CC(c1ccc(Cl)c(Cl)c1)n1cnc2ccc(NC(=O)CO)cc2c1=O (stereo not drawn) [compound 23, N-(3-(1-(3,4-dichlorophenyl)ethyl)-4-oxo-3,4-dihydroquinazolin-6-yl)-2-hydroxyacetamide]

SMILES	IC50 [1]	IC50 [2]
O=C(Nc1ccc2ncn(Cc3ccc(Cl)c(Cl)c3)c(=O)c2c1)Oc1ccc(Cl)cc1 [LXX, N-{3-[(3,4-dichlorophenyl)methyl]-4-oxo(3-hydroquinazolin-6-yl)}(4-chlorophenoxy)carboxamide]		3220 nM
